Experimental data taken from ChEMBL document CHEMBL1124952, “Growth inhibition and induction of cellular differentiation of human myeloid leukemia cells in culture by carbamoyl congeners of ribavirin” (1990).

Key:
Assay type in all cases: functional
HL-60 = experiment: Evaluated for cell growth inhibition and induction of cellular differentiation of human myeloid leukemia cell line (HL-60); conditions: read-out: ID50 (the source's name)
L1210 = experiment: Evaluated for cell growth inhibition and induction of cellular differentiation of Murine leukemia cell line (L-1210); conditions: Mus musculus, read-out: ID50 (the source's name)
K562 = experiment: Evaluated for cell growth inhibition and induction of cellular differentiation of human myeloid leukemia cell line (K562); conditions: read-out: ID50 (the source's name)
[1] = Evaluated for cell growth inhibition and induction of cellular differentiation of human B-lymphoblast cell line (WI-L2); conditions: WIL2, read-out: ID50 (the source's name)

Row | SMILES | IC50 (HL-60) | IC50 (L1210) | IC50 (K562) | IC50 [1]
1 | N=C(N)c1nn(C2OC(CO)[C@H](O)C2O)c(N)c1C(=N)N (stereo not given in full) | 130 µM | 200 µM | > 200 µM | 179 µM
2 | NC(=O)c1nn([C@@H]2O[C@H](CO)[C@@H](O)[C@H]2O)nc1C(N)=O | 32 µM | > 100 µM | 26 µM | 41 µM
3 | NC(=O)c1ncn([C@@H]2O[C@H](CO)[C@@H](O)[C@H]2O)n1 [RIBAVIRIN] | 67 µM | 36 µM | 50 µM | 42 µM
4 | N=C(S)c1nn(C2O[C@H](CO)[C@@H](O)[C@H]2O)c(N)c1C(N)=S (stereo not given in full) | 200 µM | > 200 µM | > 200 µM | 154 µM
5 | N=C(S)c1nn(C2O[C@H](CO)[C@@H](O)[C@H]2O)nc1C(N)=S (stereo not given in full) | > 200 µM | > 200 µM | > 200 µM | > 200 µM
6 | NC(=O)c1nn(C2O[C@H](CO)[C@@H](O)[C@H]2O)c(N)c1C(N)=O (stereo not given in full) | 39 µM | 44 µM | 51 µM | 46 µM
7 | N=C(NO)c1nn(C2O[C@H](CO)[C@@H](O)[C@H]2O)c(N)c1/C(N)=N/O (stereo not given in full) | > 200 µM | > 200 µM | > 200 µM | > 200 µM
8 | N=C(NO)c1nn(C2O[C@H](CO)[C@@H](O)[C@H]2O)nc1/C(N)=N/O (stereo not given in full) | > 200 µM | > 200 µM | > 200 µM | > 200 µM
9 | NC(=O)c1cn(C2O[C@H](CO)[C@@H](O)[C@H]2O)cc1C(N)=O (stereo not given in full) | 36 µM | 48 µM | 32 µM | 33 µM
10 | NC(=O)c1cn(C2O[C@H](CO)[C@@H](O)[C@H]2O)nc1C(N)=O (stereo not given in full) | 58 µM | > 100 µM | 160 µM | 100 µM
